Measured values from PubChem BioAssay (NCI).
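Following 48 hours of exposure in 96-well plates, responses at five concentrations were used to interpolate endpoints linearly. GI50 marks 50% less growth. Definition used: TGI = concentration required for complete inhibition of growth.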

Assays:
Experiment in all cases: NCI-60 cell line screen, 48 h
SNB-75 CNS = system: SNB-75 CNS
HOP-62 NSCLC = system: HOP-62 NSCLC
ACHN renal = system: ACHN renal
NCI-H23 lung = system: NCI-H23 lung
UACC-257 melanoma = system: UACC-257 melanoma
SK-OV-3 ovarian = system: SK-OV-3 ovarian
A498 renal = system: A498 renal
SR leukemia = system: SR leukemia
EKVX NSCLC = system: EKVX NSCLC
SK-MEL-2 melanoma = system: SK-MEL-2 melanoma

SMILES | GI50 (SNB-75 CNS) [µM] | TGI (SNB-75 CNS) [µM] | GI50 (HOP-62 NSCLC) [µM] | TGI (HOP-62 NSCLC) [µM] | GI50 (ACHN renal) [µM] | TGI (ACHN renal) [µM] | GI50 (NCI-H23 lung) [µM] | TGI (NCI-H23 lung) [µM] | GI50 (UACC-257 melanoma) [µM] | TGI (UACC-257 melanoma) [µM] | GI50 (SK-OV-3 ovarian) [µM] | TGI (SK-OV-3 ovarian) [µM] | GI50 (A498 renal) [µM] | TGI (A498 renal) [µM] | GI50 (SR leukemia) [µM] | TGI (SR leukemia) [µM] | GI50 (EKVX NSCLC) [µM] | TGI (EKVX NSCLC) [µM] | GI50 (SK-MEL-2 melanoma) [µM] | TGI (SK-MEL-2 melanoma) [µM]
Cc1cc2nc(-c3c(N)ncc(C#N)c3-c3ccc(Cl)cc3)[nH]c2cc1C | 12.9 | 32.4 | 6.36 | 21.7 | 11.1 | > 100 | 8.1 | 30.7 | 11.4 | 82.6 | 11.9 | 27.9 | 11.8 | 59.2 | 28.7 | > 100 | 14.4 | 76.7 | 20.4 | > 100
CC(C)(CN1CCCCC1)C(/C=C/c1ccccc1)=N\NC(=O)N/N=C(/C=C/c1ccccc1)C(C)(C)CN1CCCCC1 | – | 3.05 | – | 3.71 | – | 11.9 | – | 4.68 | – | 3.1 | – | 9.52 | – | 2.95 | – | 2.08 | – | 20.7 | – | 3.73
Nn1c(Sc2nc3ccccc3c(=O)n2N)nc2ccccc2c1=O | – | 34.8 | – | 35.9 | – | 26.4 | – | 5.43 | – | 38.1 | – | 54.6 | – | 36.5 | – | 5.1 | – | 38.9 | – | 14.3
Cc1ccc(NC2=N/C(=C/c3ccco3)C(Cl)=N2)cc1 | – | > 100 | – | > 100 | – | > 100 | – | > 100 | – | > 100 | – | > 100 | – | > 100 | – | > 100 | – | > 100 | – | > 100
COc1cc2c(c(OC)c1)C(=O)O[C@H](C)CCCC/C=C/C2 | – | > 32.8 | – | 24.7 | – | > 30.6 | – | > 100 | – | > 33.9 | – | > 100 | – | > 100 | – | > 100 | – | 29.6 | – | 31.1
C=C(CCOC)CCC1CCCCC(=C)[C@H]1O (stereo not given in full) | – | > 100 | – | > 100 | – | > 100 | – | > 100 | – | > 100 | – | > 100 | – | > 100 | – | > 100 | – | > 100 | – | > 100
CNC(=O)N(CCC#N)CCCN(C(=O)N(C)C)c1ccccc1 | – | > 100 | – | > 100 | – | > 100 | – | > 100 | – | > 100 | – | > 100 | – | > 100 | – | > 100 | – | > 100 | – | > 100
O=c1[nH]c2cc([N+](=O)[O-])c(Nc3c4ccccc4nc4ccccc34)c([N+](=O)[O-])c2[nH]1 | – | 13.5 | – | 11.6 | – | 16.7 | – | 16 | – | 11.2 | – | 24.7 | – | 6.86 | – | 4.36 | – | 7.47 | – | 8.6
COc1cc(C)cc2c(-c3c(O)cc(O)c4c3C[C@H](C)N[C@H]4C)cc(-c3cc(-c4c(O)cc(O)c5c4C[C@H](C)N[C@H]5C)c4cc(C)cc(OC)c4c3O)c(O)c12 | – | > 100 | – | > 100 | – | > 100 | – | > 100 | – | > 100 | – | > 100 | – | > 100 | – | > 100 | – | > 100 | – | > 100
COc1cc2oc(=O)cc(C)c2c(OC)c1OC(C)=O | – | > 100 | – | > 100 | – | > 100 | – | > 100 | – | > 100 | – | > 100 | – | > 100 | – | > 100 | – | > 100 | – | > 100
